The source of these data is patent publication US8648068B2, “Heterocycloalkyl-containing thienopyrimidines for pharmaceutical compositions” (Boehringer Ingelheim International GmbH, priority 2010, dated 2014).

What is called IC50 is the concentration that gives 50% inhibition.

Each structure is given as a SMILES string. Structures can show the parent of a compound that is named as a salt.

Assay [1] relates to Mnk2 (Mnk2a or Mnk2b) or Mnk1. As to conditions: cell culture cells transfected with Mnk2 (Mnk2a or Mnk2b) or Mnk1; cited from earlier work.
The target of a further assay is T1, human Mnk2a (Homo sapiens, UniProt Q9HBH9).
T1 construct: made in house; host or cells: E. coli BL21 (vector pGEX-4T1)
The experiment in a line: Mnk2a in vitro kinase assay (indirect fluorescence polarization). Format: biochemical. As to conditions: GST-Mnk2a pre-activated with ERK2, 20 μM ATP, 30 μM substrate peptide; read-out: MNK2 IC50. The essentials: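 Indirect competitive fluorescence polarization: kinase-generated phospho-product displaces a fluorophore-labelled phospho-peptide from a phospho-specific antibody. Enzyme is N-terminal GST-Mnk2a from E. coli, activated with pre-activated ERK2 and 50 μM ATP; substrate is an amidated 12-mer peptide around eIF4E Ser209.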

T1 sequence (Q9HBH9 whole entry): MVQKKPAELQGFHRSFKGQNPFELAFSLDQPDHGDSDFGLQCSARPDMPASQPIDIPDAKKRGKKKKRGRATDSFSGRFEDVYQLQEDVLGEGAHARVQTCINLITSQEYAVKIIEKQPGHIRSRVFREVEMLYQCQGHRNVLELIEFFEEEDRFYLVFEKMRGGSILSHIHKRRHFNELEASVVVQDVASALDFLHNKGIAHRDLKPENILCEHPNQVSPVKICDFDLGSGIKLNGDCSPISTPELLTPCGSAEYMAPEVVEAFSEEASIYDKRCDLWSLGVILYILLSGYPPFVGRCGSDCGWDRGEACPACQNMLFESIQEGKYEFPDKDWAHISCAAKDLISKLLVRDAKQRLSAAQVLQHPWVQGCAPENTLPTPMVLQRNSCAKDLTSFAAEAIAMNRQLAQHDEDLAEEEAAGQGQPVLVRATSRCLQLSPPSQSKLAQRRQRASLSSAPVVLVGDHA

As to `Nc1ncnc2n[nH]c(Nc3ccc(F)cc3)c12` [CGP57380], the “reduction of phosphorylated eIF4E” value in assay [1] is reported as “strong reduction”.
Turning to `Cc1c(C(=O)NCCOC(C)C)sc2ncnc(Nc3ccc(F)cc3OC3CCOCC3)c12` [Example 232], at human Mnk2a, the IC50 worked out at 45 nM.
In the case of `Cc1c(C(=O)NCCC#N)sc2ncnc(Nc3ccc(F)cc3OC3CCOCC3)c12` [Example 228], the IC50 on human Mnk2a stood at 35 nM.
Same read-out and setting: as for `Cc1c(C(N)=O)sc2ncnc(Nc3cccnc3O[C@H]3CCOC3)c12` [Example 269, 5-Methyl-4-{2-[(S)-(tetrahydro-furan-3-yl)oxy]-pyridin-3-ylamino}-thieno[2,3-d]pyrimidine-6-carboxylic acid amide], the figure is 34 nM.
For the compound `Cc1c(C(N)=O)sc2ncnc(Nc3ccc(F)cc3O[C@H]3C[C@@H](CO)N(S(C)(=O)=O)C3)c12` [Example 113, 4-[4-Fluoro-2-((3S,5S)-5-hydroxymethyl-1-methanesulfonyl-pyrrolidin-3-yloxy)-phenylamino]-5-methyl-thieno[2,3-d]pyrimidine-6-carboxylic acid amide], the IC50 at human Mnk2a stood at 420 nM.
`Cc1c(C(N)=O)sc2ncnc(Nc3ccc(F)cc3O[C@H]3CCCN(S(C)(=O)=O)C3)c12` [Example 10, (S)-4-(4-fluoro-2-(1-(methylsulfonyl)piperidin-3-yloxy)phenylamino)-5-methylthieno[2,3-d]pyrimidine-6-carboxamide]: at human Mnk2a, the IC50 worked out at 10 nM.
The same measure, in the same setting: with `Cc1c(C(=O)N[C@@H](C)C(=O)O)sc2ncnc(Nc3ccc(F)cc3OC3CCOCC3)c12` [Example 148] the figure was 68 nM; with `Cc1c(C(=O)NC(C)C)sc2ncnc(Nc3ccc(F)cc3O[C@H]3CCCNC3)c12` [Example 12], 61 nM.
The same measure, in the same setting: as for `Cc1c(C(=O)NCc2cocn2)sc2ncnc(Nc3ccc(F)cc3OC3CCOCC3)c12` [Example 198], the figure is 29 nM; as for `Cc1c(C(=O)NCCc2c[nH]cn2)sc2ncnc(Nc3ccc(F)cc3OC3CCOCC3)c12` [Example 233], 27 nM; as for `Cc1c(C(=O)NCC(=O)N(C)C)sc2ncnc(Nc3ccc(F)cc3OC3CCOCC3)c12` [Example 157], 65 nM.
Still for that read-out and setting: with `Cc1c(C(=O)NCCOCCO)sc2ncnc(Nc3ccc(F)cc3OC3CCOCC3)c12` [Example 210] the figure was 60 nM; with `Cc1c(C(=O)NCC#CCN(C)C)sc2ncnc(Nc3ccc(F)cc3OC3CCOCC3)c12` [Example 181], 21 nM; with `Cc1c(C(=O)NCCCc2c[nH]cn2)sc2ncnc(Nc3ccc(F)cc3OC3CCOCC3)c12` [Example 169], 38 nM.
As to `CC(=O)N1CCC[C@@H](Oc2cc(F)ccc2Nc2ncnc3sc(C(N)=O)c(C)c23)C1` [Example 83], the IC50 at human Mnk2a was 120 nM.
Same read-out and setting: with `Cc1c(C(=O)NC2(CO)CCCC2)sc2ncnc(Nc3ccc(F)cc3OC3CCOCC3)c12` [Example 225] the figure was 53 nM; with `Cc1c(C(=O)NC2CCN(C)C[C@@H]2O)sc2ncnc(Nc3ccc(F)cc3OC3CCOCC3)c12` (stereo partly drawn) [Example 257, 4-[4-Fluoro-2-(tetrahydro-pyran-4-yloxy)-phenylamino]-5-methyl-thieno[2,3-d]pyrimidine-6-carboxylic acid ((S)-3-hydroxy-1-methyl-piperidin-4-yl)-amide-hydrochloride], 40 nM; with `CCC(CC)CNC(=O)c1sc2ncnc(Nc3ccc(F)cc3OC3CCCNC3)c2c1C` (centres unmarked) [Example 26], 60 nM.
Turning to `Cc1c(C(=O)NC2CN(C)C2)sc2ncnc(Nc3ccc(F)cc3OC3CCOCC3)c12` [Example 200], the IC50 at human Mnk2a was 69 nM.
Same read-out and setting: with `Cc1c(C(=O)NCCCN2CCCC2)sc2ncnc(Nc3cccnc3O[C@@H]3CCCOC3)c12` [Example 262] the figure was 53 nM.
